# Source: the supplement of paper PMC3937590
# Legend:
# Test in all cases: -log10 GI50 (growth inhibition 50%) (-log10(M)); higher = more potent growth inhibition
# [1] = tested on: BT474
# Outline: (§1)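 A value carrying a < qualifier equals the top dose tested. Each compound was tested in triplicate on breast cancer cell lines for 72 hours at nine doses in 1:5 serial dilution, using a luminescence read-out against a time-zero plate. Nonlinear least squares fitting of a Gompertz curve gave GI50, the molar concentration causing the set level of growth inhibition, which is reported as its negative logarithm. The logarithm is base 10.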
# [2] = tested on: BT483
# Outline: as §1
# [3] = tested on: BT549
# Outline: as §1
# [4] = tested on: HCC1143
# Outline: as §1
# [5] = tested on: HCC1395
# Outline: as §1
# [6] = tested on: HCC1428
# Outline: as §1
# [7] = tested on: HCC1937
# Outline: as §1
# [8] = tested on: HCC1954
# Outline: as §1
# [9] = tested on: HCC2185
# Outline: as §1
# [10] = tested on: HCC38
# Outline: as §1
# [11] = tested on: HCC70
# Outline: as §1
# [12] = tested on: LY2
# Outline: as §1
# [13] = tested on: MCF10F
# Outline: as §1
# [14] = tested on: MCF12A
# Outline: as §1
# [15] = tested on: MDAMB157
# Outline: as §1
# [16] = tested on: MDAMB415
# Outline: as §1
# [17] = tested on: SUM1315MO2
# Outline: as §1
# [18] = tested on: SUM149PT
# Outline: as §1
# [19] = tested on: UACC812
# Outline: as §1
Compound,-log10 GI50 [1],-log10 GI50 [2],-log10 GI50 [3],-log10 GI50 [4],-log10 GI50 [5],-log10 GI50 [6],-log10 GI50 [7],-log10 GI50 [8],-log10 GI50 [9],-log10 GI50 [10],-log10 GI50 [11],-log10 GI50 [12],-log10 GI50 [13],-log10 GI50 [14],-log10 GI50 [15],-log10 GI50 [16],-log10 GI50 [17],-log10 GI50 [18],-log10 GI50 [19]
CC(=O)Nc1cccc(-n2c(=O)n(C3CC3)c(=O)c3c(Nc4ccc(I)cc4F)n(C)c(=O)c(C)c32)c1,< 4.78,< 4.78,5.55,< 4.78,6.71,< 4.78,< 4.78,6.79,< 4.78,< 4.78,8.18,< 4.78,8.06,8.68,6.57,6.19,7.19,7.64,< 4.78
CC(C)Oc1ccc(C(=O)N[C@H](CNC(=O)CN(C)C)Cc2ccc(-c3cn4cccc([C@H](C)O)c4n3)cc2)cc1Cl,5.46,6.44,7.3,6.98,7.35,5.99,7.36,7.6,7.41,7.32,7.68,–,6.29,6.1,7.48,7.08,7.46,7.17,7.94
CCNCCCNC/C=C\CNCCCNCC,4.24,3.27,4.73,4.05,4.09,3.74,5.24,6.52,3.39,5.26,5.9,2.9,3.76,< 4,2.96,4.17,2.95,4.55,3.47
CCn1cc(-c2ccnc3[nH]c(-c4cccc(CN(C)C)c4)cc23)c(-c2ccc(NC(=O)N(C)C)cc2)n1,5.2,5.35,5.71,5.52,5.27,5.69,5.73,5.57,6.3,6.53,6.58,5.03,5.69,5.22,6.23,5.76,5.9,5.55,5.07
C[C@@H](Oc1cc(-c2cnn(C3CCNCC3)c2)cnc1N)c1c(Cl)ccc(F)c1Cl,5.11,–,5.44,5.7,5.37,5.13,5.25,5.45,5.18,5.63,5.46,5.8,5.61,5.38,5.71,5.69,5.24,5.7,5.02
C[C@@H](Oc1cc(-n2cnc3ccc(CN4CCN(C)CC4)cc32)sc1C(N)=O)c1ccccc1C(F)(F)F,5.07,5.35,7.48,7.17,8.37,5.33,7.5,8.16,8.29,–,7.78,5.8,7.11,6.14,8.02,7.15,7.52,7.96,4.99
O=C1NC(=O)/C(=C/c2ccc3nccc(-c4ccncc4)c3c2)S1,6.8,6.8,5.73,6.24,5.61,6.28,6.09,6.68,6.9,6.11,6.75,5.87,6.71,6.38,6.17,6.26,6.49,6.01,6.62
C=CCNC1=C2C[C@@H](C)C[C@H](OC)[C@H](O)[C@@H](C)/C=C(\C)[C@H](OC(N)=O)[C@@H](OC)/C=C\C=C(/C)C(=O)NC(=CC1=O)C2=O [17-AAG],5.84,6.68,7.51,6.86,6.54,8.39,6.88,7.5,6.93,7.24,6.62,6.99,7.5,7.48,–,7.45,7.72,7.01,7.96
COc1cc2ncnc(Nc3cccc(Cl)c3)c2cc1OC [AG1478],6.17,< 3.78,4.33,< 3.78,4.15,< 3.78,4.89,5.64,4.57,3.9,4.21,< 3.78,6.69,7.16,4.48,< 3.78,6.08,5.93,–
CCc1c2c(nc3ccc(OC(=O)N4CCC(N5CCCCC5)CC4)cc13)-c1cc3c(c(=O)n1C2)COC(=O)[C@]3(O)CC [CPT-11],4.69,5.22,5.47,4.88,6,4.64,5.14,4.72,5.5,6.14,4.97,4.88,5.18,5.79,5.43,4.94,5.34,–,5.49
O=C(O)C1(C(=O)O)CCC1.[NH2-].[NH2-].[Pt+2] [Carboplatin],3.97,5.82,4.61,3.88,5,3.86,4.47,4.42,4.88,4.76,4.82,4.34,4.41,4.05,4.07,3.79,4.57,4.82,4.76
N.N.[Cl][Pt][Cl] [Cisplatin],4.42,4.05,5.6,5.04,5.91,4.33,5.48,5.29,5.71,5.78,5.8,5.11,5.42,4.18,4.62,3.84,5.75,5.8,5.48
CCN(CC)C(=S)SSC(=S)N(CC)CC [Disulfiram],< 4.18,4.18,6.89,6.95,< 4.18,4.97,6.89,< 4.18,< 4.18,5.96,< 4.18,5.01,< 4.18,4.97,7.22,4.89,6.36,–,7.03
CC(=O)O[C@@]12CO[C@@H]1C[C@H](O)[C@@]1(C)C(=O)[C@H](O)C3=C(C)[C@@H](OC(=O)[C@H](O)[C@@H](NC(=O)OC(C)(C)C)c4ccccc4)C[C@@](O)([C@@H](OC(=O)c4ccccc4)[C@H]21)C3(C)C [Docetaxel],8.2,7.65,8.46,8.06,8.24,7.77,–,8.78,8.52,8.69,8.49,8.2,8.59,8.59,8.76,8.48,8.71,8.76,8.39
COc1cccc2c1C(=O)c1c(O)c3c(c(O)c1C2=O)C[C@@](O)(C(=O)CO)C[C@@H]3O[C@H]1C[C@H](N)[C@H](O)[C@H](C)O1 [Doxorubicin],6.51,7,6.94,6.6,6.6,5.92,6.49,6.74,7.29,7.14,5.36,6.71,6.64,7.34,6.49,6.52,6.73,–,7.12
COc1cccc2c1C(=O)c1c(O)c3c(c(O)c1C2=O)C[C@@](O)(C(=O)CO)C[C@@H]3O[C@H]1C[C@H](N)[C@@H](O)[C@H](C)O1 [Epirubicin],5.17,6.78,6.7,6.58,6.14,5.88,6.69,6.7,6.91,7.07,6.35,6.86,6.32,7.26,6.31,6.58,7.44,6.66,–
O=c1[nH]cc(F)c(=O)[nH]1 [Fluorouracil],3.75,4.48,4.01,3.76,3.18,4.99,3.66,4.79,3.42,3.72,3.99,4.43,5.37,4.82,3.11,3.66,3.37,4.14,4.34
COc1cc2ncnc(Nc3ccc(F)c(Cl)c3)c2cc1OCCCN1CCOCC1 [Gefitinib],6.14,5.21,4.86,4.93,5.17,4.97,5.08,5.92,4.53,4.75,5.05,4.62,6.16,6.17,4.92,5.09,5.83,5.62,6.04
O=C(O)C(=O)O.[NH-][C@@H]1CCCC[C@H]1[NH-].[Pt+2] [Oxaliplatin],4.73,4.56,5.81,4.7,–,5.09,5.1,5.95,5.54,–,5.38,5.45,5.35,5.75,4.8,4.53,4.86,5.83,5.85
CC/C(=C(\c1ccccc1)c1ccc(OCCN(C)C)cc1)c1ccccc1 [Tamoxifen],5.62,5.47,< 3.78,4.28,4.37,5.49,< 3.78,4.54,4.21,4.28,< 3.78,4.25,< 3.78,4.89,4.09,4.47,4.46,4.11,–
CC[C@@]1(O)C(=O)OCc2c1cc1n(c2=O)Cc2cc3c(CN(C)C)c(O)ccc3nc2-1 [Topotecan],5.6,7.38,7.62,6.58,7.82,6.35,–,6.55,7.39,8.61,6.3,6.59,6.67,7.58,6.4,6.73,8.08,–,7.3
